Results published in patent publication US10967047B2, “Mitochondrial antiviral-signaling (MAVS) polypeptides and detection and use thereof” (University of Vermont and State Agricultural College, priority 2016, dated 2021).

Key:
MEFs = assay: Mitochondrial transmembrane potential (ΔΨm) by FACS using TMRE in MEFs; assay type: cell-based, mouse
Method: ROS generation was measured using oxidized, green-fluorescent dihydrocalcein acetoxymethylester (DHC-AM) (Life Technologies) and flow cytometry. Single-cell suspensions of MEFs were prepared and ROS was assessed with 5 μM DHC-AM staining in culture medium for 30 minutes (A. Rohnstock et al., (2007) Toxicol in Vitro 21, 1552-1562). 25 nM of cationic cell permeant dye tetramethylrhodamine ethylester (TMRE; Life Technologies) (R. C. Scaduto, Jr. et al., (1999), Biophysical journal 76, 469-477) were used to measure ΔΨm. Additionally, MitoSox Red and MitoTracker Deep Red (Life Technologies) were used to measure mitochondrial ROS and mitochondrial mass, respectively. Flow cytometry was carried out on an LSRII (BD Biosciences), and FlowJo software (Tree Star) was used for analysis.

MAVS [1] = assay: MAVS oligomerization in MEFs (semi-denaturing gel electrophoresis, immunoblot, densitometry); assay type: cell-based, mouse
Method: 5′ triphosphate double-stranded RNA (5′-ppp-dsRNA), a synthetic ligand for RIG-I, was purchased from InVivoGen and used at a concentration of 1 μg/mL. Mitochondria-targeted antioxidant MitoQ and the mitochondria-targeted superoxide generator MitoPQ, were gifts of M. Murphy (G. F. Kelso et al., (2001) The Journal of biological chemistry 276, 4588-4596). The control reagent TPP was purchased from Sigma. Reagents were added to cells at concentrations as indicated. GOx was purchased from Sigma and added to cultured cells at a final concentration of 0.1 U/mL. Iodoacetamide was from Thermo Fisher, and used at a final concentration of 100 μM.
Cultured MEFs or human PBMCs were lysed in a sample buffer containing 2% SDS and insoluble cell fragments were removed by centrifugation. Plasma samples derived from SLE patients were collected and stored at −20° C. until gel electrophoresis. BCA protein assay (Thermo Scientific) was used to determine protein concentrations in all samples were resolved with SDS-PAGE under denaturing conditions. Gels were transferred to PVDF membranes using a Trans-Blot Turbo Transfer System (BioRad).
(§1) SDD-AGE was performed according to a published protocol with minor modifications (Alberti et al., (2009) Cell 137, 146-158). In brief, mitochondria were resuspended in sample buffer (0.5×TBE, 10% glycerol, 2% SDS, and 0.0025% bromophenol blue) and loaded onto a vertical 1.5% agarose gel. After electrophoresis in the running buffer (1×TBE and 0.1% SDS) for 35 min with a constant voltage of 75 V at 4° C., proteins were transferred to PVDF membranes using a Trans-Blot Turbo Transfer System (BioRad) for immunoblotting.
PVDF membranes were blocked in 5% solution of nonfat powdered milk in Tris-buffered saline. Antibodies used were specific for MAVS and Actin (Santa Cruz); RIPK1 and TRAF2 (BD Biosciences); TANK, TRADD, RIG-I, and GAPDH (Cell Signaling); MDAS and COX4 (Abcam), Alexa 488 (Life Technologies), and IRF3 (Thermo Fisher), respectively. Immunoreactive proteins were visualized using HRP-labeled conjugates (Jackson Immuno Research) and developed using Clarity Western ECL substrate (Biorad). Chemiluminescence was detected and recorded using a Biorad Chemidoc instrument. Densitometric measurements were performed in Image Lab image acquisition and analysis software (Biorad).

MAVS [2] = assay: MAVS oligomerization in human PBMC and plasma (semi-denaturing agarose gel electrophoresis); assay type: cell-based
Method: MAVS-deficient and matching WT MEFs, gift of Z. J. Chen (Z. J. Chen et al. (2005) Cell 122, 669-682), were maintained in Dulbecco's modified Eagle's medium (DMEM) (Hyclone), supplemented with 10% heat-inactivated fetal calf serum (FCS) (Hyclone), 100 mM L-glutamine (Cellgro Mediatech), and 10,000 units/mL penicillin/10 mg/mL streptomycin sulfate (Life Technologies). C57BL6 or B6; 129-Mavstm1Zjc/J mice (The Jackson Laboratory, Bar Harbor, Me.) were maintained at the University of Vermont under a protocol approved by the Institutional Animal Care and Use Committee. Murine BMDCs were prepared as described by Inaba et al. (K. Inaba et al., (1992) Journal of Experimental Medicine 176, 1693-1702). In brief, cells derived from femur bone marrow were cultured at a density of 5×10^5/mL in 10-cm plates in RPMI 1640 (HyClone), supplemented with 5% heat-inactivated FCS, 100 mmol L-glutamine, 100 mmol sodium pyruvate, 10,000 units/mL penicillin/10 mg/mL streptomycin sulfate, 5×10^−5 mol 2-mercaptoethanol (Sigma, St. Louis, Mo.), and 10 μg/mL GM-CSF (Life Technologies). Human subjects were enrolled under a protocol approved by the University of Vermont Institutional Review Board. Samples from 17 SLE patients fulfilling the American College of Rheumatology diagnostic criteria were studied (E. M. Tan et al., (1982) Arthritis and Rheumatism 25, 1271-1277). 16 out of 17 patients were female, and the age of study participants was 47±3. The disease activity was assessed by the SLE disease activity index (SLEDAI) scores, ranging from 0 to 10 (C. Bombardier et al., (1992) Arthritis and Rheumatism 35, 630-640). Upon informed consent, primary human PBMCs were obtained from heparinized whole-blood samples from SLE patients. Control PBMCs were generated from age-, sex-, and ethnicity-matched healthy subjects. PBMCs were isolated using standard Ficoll gradient centrifugation as previously described (R. Mallone et al., (2011) Clin. and Exp. Immunol. 163, 33-49). Cells were either used immediately to prepare lysates for immunoblotting or cultured at a density of 5×10^5/mL in a 12-well culture plate with RPMI 1640 (HyClone), supplemented with 5% heat-inactivated FCS, 100 mmol L-glutamine, 100 mmol sodium pyruvate, and 10,000 units/mL penicillin/10 mg/mL streptomycin sulfate. Enriched monocytes from PBMCs were used to prepare hDCs using negative magnetic bead selection (Miltenyi), and were subsequently cultivated for 6 d in 10 μg/mL GM-CSF and 500 U/mL IL-4. All cells were maintained in a humidified chamber at 37° C. and 5% CO2.
as §1
PVDF membranes were blocked in 5% solution of nonfat powdered milk in Tris-buffered saline. Antibodies used were specific for MAVS and Actin (Santa Cruz); RIPK1 and TRAF2 (BD Biosciences); TANK, TRADD, RIG-I, and GAPDH (Cell Signaling); MDAS and COX4 (Abcam), Alexa 488 (Life Technologies), and IRF3 (Thermo Fisher), respectively. […] Chemiluminescence was detected and recorded using a Biorad Chemidoc instrument. […]

Drp1 = assay: Phosphorylated Drp1 (Drp1 616p) at purified mitochondria, densitometry normalized to Cox IV; assay type: cell-based
Method: To activate MAVS commercially available 5′-ppp-RNA was used at a concentration of 1 μg/ml, which activates RIG-I helicase. As an alternative GOx was used as previously described [Szeto, H. H., Br J Pharmacol, 2014. 171(8): p. 2029-50]. Mitochondria were purified by anti-Tom22 magnetic beads as previously described [Perl, A., et al., Int Rev Immunol, 2004. 23(3-4): p. 293-313]. Changes in the level of Drp1^616p at mitochondria were determined by densitometry, which was normalized to the level of Cox IV (FIG. 14A-B).

Row | Compound | ΔΨm induced by the substance (MEFs; MAVS-WT MEFs, not observed in MAVS-KO (FIG. 1B, 2D)) | induction of MAVS oligomerization without viral infection (MAVS [1]; MEFs, substance alone (MitoPQ 1 to 10 nM, FIG. 2H; GOx, FIG. 2A)) | induction of MAVS oligomerization in PBMCs (MAVS [2]; healthy-donor PBMCs treated with GOx (FIG. 4A)) | level of phosphorylated Drp1 at mitochondria after MAVS activation (Drp1; 5′-ppp-RNA 1 μg/ml or GOx (FIG. 14A-B)) | mitochondrial hyperpolarization (ΔΨm) with MitoQ (MEFs; MEF, GOx+/−MitoQ and SINV+/−MitoQ, TMRE (FIG. 3C)) | decrease in MAVS oligomers (MAVS [1]; MEFs pre-treated with 100 μM MitoQ, then GOx, oligomer/monomer ratio by densitometry (FIG. 3B)) | decrease in MAVS oligomerization (MAVS [1]; MEFs pre-treated with 100 μM MitoQ, then SINV infection, densitometry (FIG. 3B)) | MAVS oligomerization after pretreatment (MAVS [1]; MEFs pretreated (100 μM) before GOx or SINV (FIG. 3A)) | GOx-induced MAVS oligomerization in PBMCs after pretreatment (MAVS [2]; healthy-donor PBMCs pretreated with MitoQ or grown in presence of β-Me, then GOx (FIG. 4A)) | level of phosphorylated Drp1 at mitochondria with MitoQ pre-treatment (Drp1; same cells pre-treated with MitoQ, versus 5′-ppp-RNA or GOx alone (FIG. 14A-B))
1 | glucose oxidase [GOx] | increased ΔΨm | sufficient to induce MAVS oligomerization | induced pronounced MAVS oligomerization | lower levels of phosphorylated Drp1 at mitochondria | – | – | – | – | – | –
2 | COC1=C(OC)C(=O)C(CCCCCCCCCC[P+](c2ccccc2)(c2ccccc2)c2ccccc2)=C(C)C1=O.CS(=O)(=O)[O-] [MitoQ, [10-(4,5-Dimethoxy-2-methyl-3,6-dioxo-1,4-cyclohexadien-1-yl)decyl](triphenyl)phosphonium methanesulfonate] | – | – | – | – | decreased mitochondrial hyperpolarization | ≥ 80% | ~40% | reduced MAVS oligomerization | MAVS oligomerization did not occur | higher levels
